Test results as given in patent publication US8349316B2, “Lactobacillus fermentum SG-A95 for improving oral bacterial groups and health care compositions thereof” (priority 2010, dated 2013).

Legend:
[1] = system: artificially induced periodontal disease (ligature wire, Streptococcus mutans inoculated in gum tissue); assay: Evaluation of therapeutic effect for animal periodontal disease; type: in vivo, Balb/c mice; conditions: treatment group; for mice periodontal pocket depth: mean±S.D.
Description: (§1) This trial included treatment groups and control groups. The-treatment group of Lactobacillus fermentum SG-A95 were divided into 6 groups as follows: 3 groups of dialyzed Lactobacillus fermentum SG-A95 fermentation product concentrate such as 4-fold, 2-fold, and 1-fold (unconcentrated fermentation broth) and 3 groups of Lactobacillus fermentum SG-A95 in various numbers of bacteria such as 1×10^9, 2×10^9 and 5×10^9. Two control groups were treated with 0.267 mg/mL of tetracycline and distilled water.
Twelve of 8-week-old female Balb/c mice were selected for each group (Table 3). […] After diagnosis of diseased tissue by chief dentists, they were administered different concentrations of Lactobacillus fermentum SG-A95 fermentation product, live Lactobacillus fermentum SG-A95, 1 mL of 0.267 mg/mL tetracycline or distill water every day. The symptoms were recorded. The wire was removed at the beginning of the treatment and stop periodontal pathogen inoculation. At day 4, 8, 12, and 16 after wire removal, mice periodontal pocket depth was examined. 3 mice from each group were killed for blood sampling and histological analysis.
(§2) Control group was used as a standard to examine subjects from each group by Mann-Whitney test.
(§3) Experimental data was shown as mean±S.D. The statistical variation of treatment groups and control groups of mice periodontal pocket was performed by One-Way ANOVA and Dunnett multiple post hoc comparison in longitudinal study, and by One-Way ANOVA and LSD multiple post hoc comparison in cross-sectional study. Besides, Mann-Whitney test was used to examine the number of periodontal pocket improving individuals. The statistical significance level of p value was 0.05.

[2] = system: artificially induced periodontal disease (ligature wire, Streptococcus mutans inoculated in gum tissue); assay: Evaluation of preventive effect for animal periodontal disease; type: in vivo, Balb/c mice; conditions: prevention group; for mice periodontal pocket depth: mean±S.D., listed as pTC
Description: as §1
Twelve of 8-week-old female Balb/c mice were selected for each group (Table 2). The mice were administered with various concentrations of Lactobacillus fermentum SG-A95 fermentation product or live Lactobacillus fermentum SG-A95, and 1 mL of 0.267 mg/mL tetracyccline or distilled water separately. […] Their pathological symptoms were observed and recorded until sacrificing all animals. Until the control group (feeding with distilled water, mock-treated group) showing gum swelling and dental plaque appearance diagnosed by chief dentists, the ligature wire was removed and inoculation of dental pathogen was stopped. At day 4, 8, 12, and 16 after wire removal, mice periodontal pocket depth was examined, 3 mice from each group were killed for blood sampling and samples were collected for histological analysis.
as §2, §3

[3] = system: Streptococcus mutans (ATCC 25175); assay: Disc agar diffusion test; type: cell-based; conditions: 6 mm paper disc, 37, anaerobic, 24 hours, mean±S.D. (n=3); zone not over 6 mm = negative
Description: (§4) Lactobacillus fermentum SG-[…] was cultured in liquid medium. MRS medium was used in this embodiment. […]. The fermentation broth was concentrated into 30-fold of original concentration and dialyzed with SPECTRA/POR® Dialysis Membrane (MWCO:3500, Spectrum Laboratories Inc, CA) for 48 hours. Lactobacillus fermentum SG-[…] and concentrate fermentation product were diluted into various concentrations according to experimental requirements. Disc agar diffusion test, broth dilution method, and co-cultivation test of Lactobacillus fermentum SG-[…] with Streptococcus mutans (ATCC 25175), Streptococcus sanguis (ATCC 49295), Porphyromonas gingivalis (ATCC 33277), and Actinomyces viscosus (ATCC 15987) were separately performed to understand the inhibition of pathogen growth. Above four pathogens strains were purchased from Bioresource Collection and Research Center of Food Industry Research and Development Institute in Taiwan or ATCC. […] Dip bacteria culture with sterile cotton swab for 3 seconds, and each bacteria was smeared on agar plates in three directions to evenly distribute the incoculum. After dialyzing 30-fold fermentation product of Lactobacillus fermentum SG-[…], adjust concentrate to 4-fold concentrate (LFP4), 2-fold concentrate (LFP2) and 1-fold (LFP1) (unconcentrated fermentation broth). […] The diameter of sterile paper disc was 6 mm. The positive bacterial inhibition effect was determined by over 6 mm bacterial inhibition zone. Otherwise, it was defined as negative bacterial inhibition effect. The cultural condition was under the temperature of 37 for 24 hours. The paper disc was used in control group containing tetracycline. The inhibition zone value was shown as mean±S.D. (n=3).

[4] = system: Actinomyces viscosus (ATCC 15987); assay: Disc agar diffusion test; type: cell-based; conditions: 6 mm paper disc, 37, anaerobic, 24 hours, mean±S.D. (n=3); zone not over 6 mm = negative
Description: as §4

[5] = system: Streptococcus sanguis (ATCC 49295); assay: Disc agar diffusion test; type: cell-based; conditions: 6 mm paper disc, 37, anaerobic, 24 hours, mean±S.D. (n=3); zone not over 6 mm = negative
Description: as §4

[6] = system: Porphyromonas gingivalis (ATCC 33277); assay: Disc agar diffusion test; type: cell-based; conditions: 6 mm paper disc, 37, anaerobic, 24 hours, mean±S.D. (n=3); zone not over 6 mm = negative
Description: as §4

**Q.** CN(C)[C@@H]1C(O)=C(C(N)=O)C(=O)[C@@]2(O)C(O)=C3C(=O)c4c(O)cccc4[C@@](C)(O)[C@H]3C[C@@H]12 [tetracycline] was tested. Which “periodontal pocket improvement percentage (percentage of improving individual)” value ([1]; Day 4, against tMT by Mann-Whitney test) did it give?
**A.** The value was 30%.

**Q.** What about the “mice periodontal pocket depth” value ([1]; Day 4 after wire removal, listed as pTC) of the same compound?
**A.** Its value is 1.05 ± 0.64 mm.

**Q.** What about the “mice periodontal pocket depth” value ([1]; Day 4 after wire removal, listed as tTC) of the same compound?
**A.** The value was 1.05 ± 0.64 mm.

**Q.** And the “periodontal pocket improvement percentage (percentage of improving individual)” value ([1]; Day 8, against tMT by Mann-Whitney test)?
**A.** The value was 20%.

**Q.** And the “mice periodontal pocket depth” value ([1]; Day 8 after wire removal, listed as pTC)?
**A.** The value was 0.89 ± 0.44 mm.

**Q.** And the “mice periodontal pocket depth” value ([1]; Day 8 after wire removal, listed as tTC)?
**A.** The value was 0.89 ± 0.44 mm.

**Q.** What about the “periodontal pocket improvement percentage (percentage of improving individual)” value ([1]; Day 12, against tMT by Mann-Whitney test) of the same compound?
**A.** The value was 47%.

**Q.** And the “mice periodontal pocket depth” value ([1]; Day 12 after wire removal)?
**A.** Its value is 0.63 ± 0.37 mm.

**Q.** What about the “periodontal pocket improvement percentage (percentage of improving individual)” value ([1]; Day 16, against tMT by Mann-Whitney test) of the same compound?
**A.** Its value is 33%.

**Q.** What about the “mice periodontal pocket depth” value ([1]; Day 16 after wire removal, listed as pTC) of the same compound?
**A.** The value was 0.61 ± 0.34 mm.

**Q.** What about the “mice periodontal pocket depth” value ([1]; Day 16 after wire removal, listed as tTC) of the same compound?
**A.** Its value is 0.48 ± 0.33 mm.

**Q.** And the “periodontal pocket improvement percentage (percentage of improving individual)” value ([2]; Day 4, against pMT by Mann-Whitney test)?
**A.** The value was 62%.

**Q.** What about the “mice periodontal pocket depth” value ([2]; Day 4 after wire removal) of the same compound?
**A.** Its value is 0.84 ± 0.50 mm.

**Q.** And the “periodontal pocket improvement percentage (percentage of improving individual)” value ([2]; Day 8, against pMT by Mann-Whitney test)?
**A.** Its value is 50%.

**Q.** What about the “mice periodontal pocket depth” value ([2]; Day 8 after wire removal) of the same compound?
**A.** The value was 0.70 ± 0.34 mm.

**Q.** And the “periodontal pocket improvement percentage (percentage of improving individual)” value ([2]; Day 12, against pMT by Mann-Whitney test)?
**A.** Its value is 71%.

**Q.** What about the “mice periodontal pocket depth” value ([2]; Day 12 after wire removal) of the same compound?
**A.** The value was 0.56 ± 0.26 mm.

**Q.** What about the “periodontal pocket improvement percentage (percentage of improving individual)” value ([2]; Day 16, against pMT by Mann-Whitney test) of the same compound?
**A.** Its value is 100%.

**Q.** What about the “mice periodontal pocket depth” value ([2]; Day 16 after wire removal) of the same compound?
**A.** Its value is 0.49 ± 0.25 mm.

**Q.** And the “Bacterial inhibition zone, Streptococcus mutans” value [3]?
**A.** The value was 29.7 ± 2.0 mm.

**Q.** What about the “Bacterial inhibition zone, Actinomyces viscosus” value [4] of the same compound?
**A.** Its value is 48.2 ± 2.4 mm.

**Q.** And the “Bacterial inhibition zone, Streptococcus sanguis” value [5]?
**A.** Its value is 25.9 ± 1.2 mm.

**Q.** And the “Bacterial inhibition zone, Porphyromonas gingivalis” value [6]?
**A.** Its value is 33.4 ± 2.2 mm.
